ChEMBL document CHEMBL4340544, “Discovery of 4,6-bis(benzyloxy)-3-phenylbenzofuran as a novel Pin1 inhibitor to suppress hepatocellular carcinoma via upregulating microRNA biogenesis” (Bioorg Med Chem, 2019)
Active and inactive are the calls of the source. No cut-off for these calls is given here.

Key:
[1] = biological target: T1, Peptidyl-prolyl cis-trans isomerase NIMA-interacting 1 (Homo sapiens, UniProt Q13526); test: Inhibition of N-terminal 6-His tagged full length Pin1 (unknown origin) expressed in Escherichia coli at 10 uM using Suc-AEPF-pNA as substrate preincubated for 10 mins followed by substrate addition and measured for 180 secs by spectrophotometry relative to untreated control
T1 sequence (Q13526 whole entry): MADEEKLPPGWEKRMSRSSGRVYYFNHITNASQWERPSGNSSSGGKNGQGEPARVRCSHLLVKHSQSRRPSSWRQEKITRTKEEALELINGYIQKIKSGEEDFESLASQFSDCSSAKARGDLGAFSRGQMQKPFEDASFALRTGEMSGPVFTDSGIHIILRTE

SNU-423 = test: Cytotoxicity against human SNU423 cells assessed as reduction in cell viability by MTT assay; type: functional, cell-based
[2] = biological target: Peptidyl-prolyl cis-trans isomerase FKBP1A (Homo sapiens) (UniProt P62942); test: Inhibition of recombinant N-terminal His6-tagged FKBP12 (unknown origin) expressed in Escherichia coli at 1 to 50 uM using Suc-AEPF-pNA as substrate preincubated for 10 min followed by substrate addition measured for 180 secs
Peptidyl-prolyl cis-trans isomerase FKBP1A (Homo sapiens), sequence (P62942 whole entry, looked up): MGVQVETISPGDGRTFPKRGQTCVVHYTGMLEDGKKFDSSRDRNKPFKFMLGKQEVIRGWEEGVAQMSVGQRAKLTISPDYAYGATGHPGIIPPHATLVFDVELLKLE

[3] = biological target: Peptidyl-prolyl cis-trans isomerase A (Homo sapiens) (UniProt P62937); test: Inhibition of recombinant N-terminal His6-tagged Cyclophilin A (unknown origin) expressed in Escherichia coli at 1 to 50 uM using Suc-AEPF-pNA as substrate preincubated for 10 min followed by substrate addition measured for 180 secs
Peptidyl-prolyl cis-trans isomerase A (Homo sapiens), sequence (P62937 whole entry, looked up): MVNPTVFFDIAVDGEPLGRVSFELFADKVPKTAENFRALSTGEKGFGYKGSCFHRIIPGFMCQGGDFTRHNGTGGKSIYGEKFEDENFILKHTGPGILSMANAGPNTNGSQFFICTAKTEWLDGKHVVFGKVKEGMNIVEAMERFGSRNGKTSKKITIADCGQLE

[4] = biological target: T1, Peptidyl-prolyl cis-trans isomerase NIMA-interacting 1; test: Inhibition of Pin1 in human SKHEP1 cells assessed as increase in miR-122 expression at 2.5 uM incubated for 36 hrs by quantitative RT PCR analysis; type: cell-based
SK-HEP1 [5] = test: Cytotoxicity against human SKHEP1 cells assessed as reduction in cell viability by MTT assay; type: functional, cell-based
SK-HEP1 [6] = test: Antiproliferation activity against human SKHEP1 cells assessed as reduction in colony formation at 2.5 uM measured after 7 days by crystal violet staining based microscopic analysis; type: functional, cell-based
[7] = biological target: T1, Peptidyl-prolyl cis-trans isomerase NIMA-interacting 1; test: Inhibition of Pin1 in human SKHEP1 cells assessed as increase in cytoplasm distribution of XPO5 at 2.5 uM incubated for 36 hrs by DAPI staining based confocal microscopic analysis; type: cell-based
[8] = biological target: Peptidyl-prolyl cis-trans isomerase NIMA-interacting 4 (Homo sapiens) (UniProt Q9Y237); test: Inhibition of recombinant N-terminal His6-tagged Pin4 (unknown origin) expressed in Escherichia coli at 1 to 50 uM using Suc-AEPF-pNA as substrate preincubated for 10 min followed by substrate addition measured for 180 secs
Peptidyl-prolyl cis-trans isomerase NIMA-interacting 4 (Homo sapiens), sequence (Q9Y237 whole entry): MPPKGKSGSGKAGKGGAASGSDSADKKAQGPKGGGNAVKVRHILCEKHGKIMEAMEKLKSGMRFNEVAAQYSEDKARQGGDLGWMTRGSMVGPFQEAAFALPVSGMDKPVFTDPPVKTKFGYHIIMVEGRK

[9] = biological target: T1, Peptidyl-prolyl cis-trans isomerase NIMA-interacting 1; test: Inhibition of recombinant N-terminal His6-tagged Pin1 (unknown origin) expressed in Escherichia coli at 1 to 50 uM using Suc-AEPF-pNA as substrate preincubated for 10 min followed by substrate addition measured for 180 secs
[10] = biological target: T1, Peptidyl-prolyl cis-trans isomerase NIMA-interacting 1; test: Inhibition of N-terminal 6-His tagged full length Pin1 (unknown origin) expressed in Escherichia coli using Suc-AEPF-pNA as substrate preincubated for 10 mins followed by substrate addition and measured for 180 secs by spectrophotometry
[11] = biological target: T1, Peptidyl-prolyl cis-trans isomerase NIMA-interacting 1; test: Inhibition of Pin1 in human SKHEP1 cells assessed as increase in miR-29b expression at 2.5 uM incubated for 36 hrs by quantitative RT PCR analysis; type: cell-based

| SMILES | inhibition [1] [%] | further results |
| --- | --- | --- |
| Clc1cccc2c(-c3ccccc3)c(-c3ccccc3)oc12 | 13.6 |  |
| c1ccc(-c2oc3ccccc3c2-c2ccccc2)cc1 | 15.8 |  |
| Cc1cccc2c(-c3ccccc3)c(-c3ccccc3)oc12 | 19.6 |  |
| Cc1ccc(-c2coc3c(C)c(C)ccc23)cc1 | 64.6 |  |
| COc1ccc(-c2coc3ccc([N+](=O)[O-])cc23)cc1 | 43.7 |  |
| Cc1ccc(-c2coc3ccc(O)cc23)cc1C | 27.8 |  |
| Clc1ccc2oc(-c3ccccc3)c(-c3ccccc3)c2c1 | 22.9 |  |
| COc1ccc2occ(-c3ccc(F)cc3)c2c1 | 30.7 |  |
| O=[N+]([O-])c1ccc2occ(-c3ccc4c(c3)OCO4)c2c1 | 23.4 |  |
| O=[N+]([O-])c1ccc2occ(-c3cccc4ccccc34)c2c1 | 14 |  |
| Oc1ccc2occ(-c3ccc(Cl)cc3)c2c1 | 13.8 |  |
| O=C1C=CC(=O)c2c(O)cccc21 | 52.6 |  |
| COc1ccc2occ(-c3ccc(C)c(C)c3)c2c1 | 23.7 |  |
| Clc1ccc2occ(-c3ccccc3)c2c1 | 19.2 |  |
| COc1ccc2occ(-c3ccccc3)c2c1 | 27 |  |
| Cc1ccc(-c2coc3ccc([N+](=O)[O-])cc23)cc1 | 32.6 |  |
| Brc1ccc2occ(-c3ccccc3)c2c1 | 19.5 |  |
| CC(C)(C)c1ccc2c(-c3ccc4c(c3)OCO4)coc2c1 | 63.7 |  |
| COc1cccc2occ(-c3ccccc3)c12 | 59.5 |  |
| Cc1ccc2oc(-c3ccccc3)c(-c3ccccc3)c2c1 | 13.9 |  |
| COc1ccc2occ(-c3ccc(C)cc3)c2c1 | 29.8 |  |
| COc1ccc(-c2coc3ccc(C#N)cc23)cc1 | 38.2 |  |

| SMILES | inhibition [1] [%] | further results |
| --- | --- | --- |
| CC(C)(C)c1ccc2occ(-c3ccc(Br)cc3)c2c1 | 28.9 |  |
| COc1ccc2occ(-c3ccc(Cl)cc3)c2c1 | 18 |  |
| CC(C)(C)c1ccc2occ(-c3ccccc3)c2c1 | 11 |  |
| Clc1cc(Cl)c2occ(-c3ccccc3)c2c1 | 16.2 |  |
| COc1ccc2oc(-c3ccccc3)c(-c3ccccc3)c2c1 | 25.7 |  |
| COc1cc(OC)c2c(-c3ccccc3)coc2c1 | 69.6 |  |
| Oc1ccc2occ(-c3ccccc3)c2c1 | 28 |  |
| c1ccc(COc2cc(OCc3ccccc3)c3c(-c4ccccc4)coc3c2)cc1 | 75.4 | IC50 (SNU-423): 2730 nM; inhibition [2]: inactive; inhibition [3]: inactive; inhibition [4]: Active; IC50 (SK-HEP1 [5]): 1140 nM; Activity (SK-HEP1 [6]): Active; inhibition [7]: Active; inhibition [8]: inactive; inhibition [9]: Active; IC50 [10]: 874 nM; inhibition [11]: Active |
| COc1ccc(-c2coc3ccccc23)cc1 | 54.8 |  |
| Clc1ccc(-c2coc3ccccc23)cc1 | 18.3 |  |
| Oc1ccc2occ(-c3ccc(F)cc3)c2c1 | 23.8 |  |
| c1coc(-c2coc3ccccc23)c1 | 22.2 |  |
| COc1cc(OC)c2c(C)coc2c1 | 45.9 |  |
| COc1ccc2c(-c3ccccc3)coc2c1 |  | IC50 [10]: 2230 nM |
| COc1ccc2c(C)coc2c1 | 65.1 |  |
| COc1cccc2c(-c3ccccc3)coc12 | 22.2 |  |
| c1ccc2c(-c3ccsc3)coc2c1 | 43.5 |  |
| Cc1ccc(-c2coc3c(Cl)cc([N+](=O)[O-])cc23)cc1 | 30.3 |  |
| N#Cc1ccc2occ(-c3ccc4c(c3)OCO4)c2c1 | 46.9 |  |
| c1ccc(-c2coc3ccccc23)cc1 | 12.4 |  |
| COc1cccc(-c2coc3ccccc23)n1 | 34.8 |  |
| Cc1ccc(-c2coc3ccc(O)cc23)cc1 | 33.1 |  |
